According to US7618971B2, “Mitotic kinesin inhibitors” (Merck & Co. Inc., priority 2004, dated 2009):

Assay: Activity of the resolved enantiomers of 1-5 (test not stated)
Settings: enantiomers resolved on Chiralpak AD; first and second peak to elute

SMILES	activity of the enantiomer (active / inactive)
CC(=O)N1N=C(c2cc(F)ccc2F)C[C@@]1(CCCO)c1ccccc1 (single isomer, unassigned; isomer 3) [(S) isomer]	active
CC(=O)N1N=C(c2cc(F)ccc2F)C[C@]1(CCCO)c1ccccc1 [(R) isomer]	inactive
